One experiment deals with T1, RARγ (Homo sapiens, UniProt P13631).
T1 construct: expressed in transfected cells; host or cells: CV1
T1 sequence (P13631 1-454): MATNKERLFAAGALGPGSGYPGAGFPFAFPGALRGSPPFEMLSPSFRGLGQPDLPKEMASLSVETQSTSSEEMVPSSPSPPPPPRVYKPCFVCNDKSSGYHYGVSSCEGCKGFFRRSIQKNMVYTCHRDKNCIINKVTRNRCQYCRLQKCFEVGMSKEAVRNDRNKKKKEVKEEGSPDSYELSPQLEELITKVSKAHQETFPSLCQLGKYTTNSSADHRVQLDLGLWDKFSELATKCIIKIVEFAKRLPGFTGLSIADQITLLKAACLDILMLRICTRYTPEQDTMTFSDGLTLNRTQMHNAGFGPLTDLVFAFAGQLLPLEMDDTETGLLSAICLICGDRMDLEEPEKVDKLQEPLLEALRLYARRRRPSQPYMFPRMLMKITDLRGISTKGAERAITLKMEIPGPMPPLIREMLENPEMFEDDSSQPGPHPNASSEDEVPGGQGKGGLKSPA
Kind of experiment: Holoreceptor transactivation assay, RARγ. Format: cell-based. Conditions: CV-1; CV1 cells; relative to all trans retinoic acid; read-out: Transactivation Assay Efficacy (% of RA activity), RARγ. The text has this: (§1) A holoreceptor transactivation assay and a ligand binding assay which measure the ability of the compounds of the invention to bind to the several retinoid receptor subtypes, respectively, are described in published PCT Application No. WO W093/11755 (particularly on pages 30-33 and 37-41) published on Jun. 24, 1993, the specification of which is also incorporated herein by reference. A description of the holoreceptor transactivation assay is also provided below.
(§2) CV1 cells (5,000 cells/well) were transfected with an RAR reporter plasmid MTV-TREp-LUC (50 ng) along with one of the […] expression vectors (10 ng) in an automated 96-well format by the calcium phosphate procedure of Heyman et al. Cell 68, 397-406. (8). For RXRα and RXR.GAMMA. transactivation assays, an RXR-responsive reporter plasmid CRBPII-tk-LUC (50 ng) along with the appropriate RXRexpression vectors (10 ng) was used substantially as described by Heyman et al. above, and Allegretto et al. J. Biol. Chem. 268, 26625-26633. For RXRβ transactivation assays, an RXR-responsive reporter plasmid CPRE-tk-LUC ([…]) along with RXRβ expression vector ([…]) was used as described in above. These reporters contain DRI elements from human CRBPII and certain DRI elements from promoter, respectively. (see Mangelsdorf et al. The Retinoids: Biology, Chemistry and Medicine, pp 319-349, Raven Press Ltd., New York and Heyman et al., cited above) (1, 8). A β-galactosidase (50 ng) expression vector was used as an internal control in the transfections to normalize for variations in transfection efficiency. The cells were transfected in triplicate for 6 hours, followed by incubation with retinoids for 36 hours, and the extracts were assayed for luciferase and β-galactosidase activities. The detailed experimental procedure for holoreceptor transactivations has been described in Heyman et al. above, and Allegretto et al. cited above. The results obtained in this assay in connection with examplary compounds in accordance with the present invention are expressed in EC50 numbers, as they are also in the chimeric receptor transactivation assay. The Heyman et al. Cell 68, 397-406, Allegretto et al. J. Biol. Chem. 268, 26625-26633, and Mangelsdorf et al. The Retinoids: Biology, Chemistry and Medicine, pp 319-349, Raven Press Ltd., New York, are expressly incorporated herein by reference. The results of ligand binding assay are expressed in Kd numbers. (See Cheng et al. Biochemical Pharmacology Vol. 22 pp 3099-3108, expressly incorporated herein by reference.)

A further experiment deals with T2, RXRβ (Mus musculus, UniProt P28704).
T2 construct: expressed in transfected cells; host or cells: CV1
T2 sequence (P28704 1-520): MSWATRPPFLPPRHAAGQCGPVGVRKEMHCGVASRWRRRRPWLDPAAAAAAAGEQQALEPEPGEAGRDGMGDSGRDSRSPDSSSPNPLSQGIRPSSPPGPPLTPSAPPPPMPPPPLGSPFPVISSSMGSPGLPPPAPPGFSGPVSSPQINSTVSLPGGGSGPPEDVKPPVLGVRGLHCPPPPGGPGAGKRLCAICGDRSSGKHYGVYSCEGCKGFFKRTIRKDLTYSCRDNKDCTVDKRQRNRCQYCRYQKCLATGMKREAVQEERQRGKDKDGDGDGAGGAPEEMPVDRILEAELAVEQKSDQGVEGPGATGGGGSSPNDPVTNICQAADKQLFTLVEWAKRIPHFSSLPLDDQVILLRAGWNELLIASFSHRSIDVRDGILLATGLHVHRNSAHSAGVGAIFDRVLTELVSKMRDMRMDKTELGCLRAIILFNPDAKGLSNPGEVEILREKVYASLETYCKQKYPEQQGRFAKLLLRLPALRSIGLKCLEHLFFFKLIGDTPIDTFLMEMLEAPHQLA
Briefly: Ligand binding assay, RXRβ.
From the text: as §1, §2

The target of experiment [1] is T3, RARα (Homo sapiens, UniProt P10276).
T3 construct: expressed in transfected cells; host or cells: CV1
T3 sequence (P10276 1-462): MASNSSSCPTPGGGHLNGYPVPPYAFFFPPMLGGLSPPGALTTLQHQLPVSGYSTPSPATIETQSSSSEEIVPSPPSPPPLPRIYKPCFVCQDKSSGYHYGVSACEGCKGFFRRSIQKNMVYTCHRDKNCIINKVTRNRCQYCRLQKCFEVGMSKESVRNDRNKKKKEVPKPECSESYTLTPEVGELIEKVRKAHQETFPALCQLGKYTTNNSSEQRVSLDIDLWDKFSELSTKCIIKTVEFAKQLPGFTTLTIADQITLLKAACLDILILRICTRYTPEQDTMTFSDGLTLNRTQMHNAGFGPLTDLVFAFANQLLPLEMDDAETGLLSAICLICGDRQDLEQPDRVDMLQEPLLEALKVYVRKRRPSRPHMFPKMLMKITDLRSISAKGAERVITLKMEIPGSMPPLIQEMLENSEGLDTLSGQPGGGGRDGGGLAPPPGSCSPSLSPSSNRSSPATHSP
Kind of experiment: Holoreceptor transactivation assay, RARα. Conditions: CV-1; CV1 cells; relative to all trans retinoic acid; read-out: Transactivation Assay Efficacy (% of RA activity), RARα. The class given is cell-based.
From the text: as §1, §2

Experiment [2] deals with T3, RARα. Briefly: Ligand binding assay, RARα.
From the text: as §1, §2

pKd: −log10 of the molar value. A value given as a limit tells only on which side of the number the result lay.

Turning to `CC1(C)CCC(C)(C)c2cc(S(=O)(=O)c3ccc(C(=O)O)cc3)ccc21` [Compound 5, 4-(5,6,7,8-tetrahydro-5,5,8,8-tetramethyl-2-naphthylsulfonyl)benzoic acid], the values for the Emax at RARγ and on RARα [1] were 0% and 10%, respectively. Besides, the pKd on RXRβ and at RARα [2] was under 6.00 in each case.
`Cc1cc2c(cc1Sc1ccc(C(=O)O)cn1)C(C)(C)CCC2(C)C` [Compound 13]: the figures for the Emax on RARγ and on RARα [1] were 0% and 1%, respectively. Further, the pKd (as a rule, the negative decadic logarithm of the Kd, by convention in mol/L) was 7.24 at RXRβ and under 5.00 at RARα [2].
For `Cc1cc2c(cc1Sc1ncc(C(=O)O)s1)C(C)(C)CCC2(C)C` [Compound 15, 2-(5,6,7,8-Tetrahydro-3,5,5,8,8-pentamethyl-2-naphthylthio)-5-thiazolecarboxylic acid], in that order: 7%, 1%, under 6.00 and under 6.00.
`Cc1cc2c(cc1S(=O)(=O)c1ccc(C(=O)O)cc1)C(C)(C)CCC2(C)C` [Compound 11, 4-(5,6,7,8-tetrahydro-3,5,5,8,8-pentamethyl-2-naphthylsulfonyl)benzoic acid]: the Emax is 0% at RARγ and 2% on RARα [1]. The compound also had a pKd on RARα [2] of under 6.00.
Regarding `Cc1cc2c(cc1Sc1ccc(C(=O)O)cc1)C(C)(C)CCC2(C)C` [Compound 7, 4-(5,6,7,8-tetrahydro-3,5,5,8,8-pentamethyl-2-Daphthylthio)benzoic acid], the Emax on RARγ amounted to 11%; on RARα [1], 3%. Further, the values for the pKd on RXRβ and on RARα [2] were 6.52 and under 6.00, respectively.
On to `Cc1cc2c(cc1[S+]([O-])c1ccc(C(=O)O)cc1)C(C)(C)CCC2(C)C` (stereo not drawn) [Compound 9, 4-(5,6,7,8-tetrahydro-3,5,5,8,8-pentamethyl-2-naphthylsulfoxy)benzoic acid], for which the Emax at RARγ stood at 3%; at RARα [1], 5%. In addition, the negative-log Kd (pKd) on RXRβ and on RARα [2] was under 6.00 throughout.
With `CC1(C)CCC(C)(C)c2cc(Sc3ccc(C(=O)O)cc3)ccc21` [Compound 2], the Emax stood at 37% at RARγ and 3% on RARα [1]. In addition, the pKd at RXRβ and on RARα [2] was under 6.00 throughout.

These data come from patent US5672710A, “Sulfides, sulfoxides and sulfones disubstituted with a tetrahydronaphthalenyl, chromanyl, thiochromanyl or tetrahydroquinolinyl and substituted phenyl or heteroaryl group, having retinoid-like biological activity” (priority 1995, dated 1997).
